Test results as given in publication PMC3224194 (European journal of pharmacology, 2011).
Substitutions are numbered along the chain they refer to.

Columns and labels:
Assay in all cases: competition with [3H]-mesulergine, HEK membranes
Format in all cases: binding
[1] = biological target: T1, human 5-HT2C-INI (WT) receptor (Homo sapiens, UniProt P28335, S138A)
T1 sequence (P28335 33-458 S138A): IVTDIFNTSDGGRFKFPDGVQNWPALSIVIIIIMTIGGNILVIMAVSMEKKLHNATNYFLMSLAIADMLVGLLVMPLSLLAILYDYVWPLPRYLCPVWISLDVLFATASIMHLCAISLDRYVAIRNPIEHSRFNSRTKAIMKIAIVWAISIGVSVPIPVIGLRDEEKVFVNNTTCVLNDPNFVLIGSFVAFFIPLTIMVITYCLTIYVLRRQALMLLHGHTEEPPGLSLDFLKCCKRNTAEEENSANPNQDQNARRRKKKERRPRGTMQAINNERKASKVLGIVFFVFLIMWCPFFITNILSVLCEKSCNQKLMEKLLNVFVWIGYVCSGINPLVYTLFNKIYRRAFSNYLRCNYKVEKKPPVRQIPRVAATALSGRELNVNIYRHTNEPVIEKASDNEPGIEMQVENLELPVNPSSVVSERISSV

[2] = biological target: T2, human 5-HT2C-INI (WT) receptor (Homo sapiens, UniProt P28335, Y358A)
T2 sequence (P28335 33-458 Y358A): T1 sequence (P28335 33-458 S138A) with A106S, Y326A

[3] = biological target: T3, human 5-HT2C-INI (WT) receptor (Homo sapiens, UniProt P28335)
T3 sequence (P28335 33-458): T1 sequence (P28335 33-458 S138A) with A106S

SMILES | Ki [1] [nM] | Ki [2] [nM] | Ki [3] [nM]
NC1Cc2ccccc2C(c2ccccc2)C1 (racemic) [NH2-PAT] | 9040 | 1350 | 1550
NCCc1c[nH]c2ccccc12 [Tryptamine] | 1510 | 298 | 57.1
